# Reference: patent US12583884B2, “3beta-(benzyloxy)-17alpha-methyl-pregn-5-en-20-one for use in the treatment of cognitive disorders” (AELIS FARMA, priority 2018, dated 2026)
# What was measured:
# [1] = Anxiety-like behaviors in the elevated plus maze; assay type: in vivo, mouse
# Text: The EPM apparatus was made of grey polyvinyl chloride and consisted of four elevated arms. The arms (height, 60 cm; length, 37 cm; width, 6 cm; each) were arranged in a cross-like disposition, with two opposite arms being enclosed by walls and the two other arms being open. A video camera placed on the top of the maze and connected to a tracking system allowed the automatic scoring of the locomotion of the mice in the maze. The light intensity of the maze was set at 45 lux in the open arms. One mouse was placed in the center of the EPM and was then free to explore the entire maze for 5 minutes. The time spent and the number of entries into the open arms and closed arms were measured. A decrease in the percentages of visits and/or of the time spent in open arms reflects an increase in anxiety levels.
# Rimonabant was dissolved in a vehicle containing DMSO, (2%), Tween80 (2%) in injectable NaCl 0.9%. Within the same study, the effect of intraperitoneal injection of rimonabant at 10 mg/kg or of vehicle alone (10 ml/kg) was studied in the EPM in 2-month-old male C57B1/6J mice (n=10 per group). The EPM test was performed 30 minutes after rimonabant injection.
# [2] = Depressive-like behaviors in the sucrose preference test; assay type: in vivo, mouse
# Experimental: Sucrose preference was tested in the home cages of the mice. A sucrose solution containing 2% of sucrose (D(+) saccharose) in tap water was poured in plastic graduated bottles (volume in each bottle, 45 ml). Identical bottles were filled with tap water. All the mice were first habituated to the bottles and to the sucrose solution. One bottle containing water and one bottle containing sucrose were placed in the hopper of each home cage. […] The mice had access to the solutions from the beginning of the dark phase, at the daily peak of food and water consumption (from 7 pm to 8.30 am). The sucrose preference test was performed seven days later. Water and sucrose solutions were presented as described for habituation except that mice had access to the solutions from 12 pm to 10 pm. At each time point, the bottles were weighed, 1 g corresponding to 1 ml. The intake volume was calculated by subtracting the initial bottle weight to the final bottle weight.
# 15 or 30 mg/kg or of vehicle (corn oil; 5 ml/kg) was studied in the sucrose preference test in 2-month-old male C57B1/6J mice (n=7-8 per group). Rimonabant was dissolved in a vehicle containing dimethylsulfoxide (DMSO, 2%), Tween80 (2%) in injectable NaCl 0.9%. Within the same study, the effect of repeated intraperitoneal injections of rimonabant at 10 mg/kg or of vehicle alone (10 ml/kg) was studied in the sucrose preference test in 2-month-old male C57B1/6J mice (n=8 per group).
# [3] = system: primary culture of rat cortical neurons; test: Neurotoxicity in primary culture of cortical neurons; assay type: cell-based; details: from 30 μM
# Experimental: Cells were then followed by time-lapse imaging during 72 hours. The cells were then permeabilized. This procedure allowed to express the cytolysis over time as a percentage of the total number of cells per well.
# [4] = system: primary culture of rat hepatocytes; test: Hepatotoxicity in primary culture of hepatocytes; assay type: cell-based
# Experimental: (§1) The percentage of cytolysed hepatocytes over time was determined by time lapse imaging with a fluorescent cytolysis marker. The number of bile canaliculi after 48 hours of treatment was determined using a fluorescent bile salt analog.
# (§2) Primary rat hepatocytes from 10-12 weeks old Wistar rats were isolated using a two-step collagenase perfusion method. After 24 hours, cells were covered with a layer of Matrigel to perform a sandwich configuration culture. […] Cells were then stained using a fluorescent bile salt analog to measure the bile canaliculi network state and the Bsep pump activity. Acetaminophen (30 mM) and Cyclosporin A (1 μM) were added as positive controls of hepatotoxicity and biliary canaliculi loss, respectively.
# [5] = system: primary culture of rat hepatocytes; test: Biliary function: bile canaliculi in primary hepatocytes
# Experimental: as §1, §2
# [6] = Beyer et al., 2010; Patel and Hillard, 2006; cited from earlier work
# [7] = therapeutic dose for the treatment of obesity; Zavatti et al., 2011; EPAR; cited from earlier work
# [8] = Food intake of standard chow in lean mice; details: acute 10 mg/kg ip; first 3 hours after light-off; male C57BL/6J
# Experimental: Spontaneous intake of standard chow in mice was evaluated during the dark phase of the light-dark cycle. The amount of food eaten was measured at light-off, 3 hours and 13 hours after light-off.
# HeLa cells = test: Genotoxicity: Histone H2AX phosphorylation; details: 100 μM; 24 hours
# Experimental: This study aimed at measuring Histone H2AX phosphorylation (γH2AX), which is the cellular response to DNA damage resulting in double-stranded DNA breaks. […] Etoposide at 3 μM was added as positive control of genotoxic effects. An immunofluorescence was performed on treated cells with a specific antibody against the phosphorylated histone gH2AX. Nuclei were stained with a fluorescent DNA intercaling agent. The stained cells were imaged and analyzed on the BD Pathway 855 imager®.
# [9] = Body weight of lean mice, repeated administrations
# Text: Mice were weighed prior to drug administration every day at the first week of treatment and then four days per week.
# [10] = reference ID100 for rimonabant effects = 10 mg/kg
smiles,measurement,setting,value
Cc1c(C(=O)NN2CCCCC2)nn(-c2ccc(Cl)cc2Cl)c1-c1ccc(Cl)cc1 [rimonabant],Time spent and number of visits in the open arms,"[1]; acute 10 mg/kg ip, 30 minutes after injection",markedly reduced the time spent and the number of visits in the open arms
same,ID100: increase in anxiety-like behaviors,[1]; male mice,10 mg/kg
same,Effect: increase in anxiety-like behaviors (acute administration),"[1]; male mice, rimonabant 10 mg/kg",Yes
same,N fold ID100: increase in anxiety-like behaviors,[1]; [10],1
same,Sucrose consumption,"[2]; 10 mg/kg ip once a day, 28 days",reduced by half sucrose consumption
same,ID100: increase in depression-related behaviors,[2]; male mice,10 mg/kg
same,Effect: increase in depression-related behaviors (repeated administration),"[2]; male mice, rimonabant 10 mg/kg",Yes
same,N fold ID100: increase in depression-related behaviors,[2]; [10],1
same,Neural cell death,[3],80%
same,Hepatocyte death,[4]; from 10 μM,100%
same,Concentration increasing hepatocyte cell death,"[4]; tested 0.1 to 100 μM, 48 hours",≥ 3000 nM
same,Effect on bile canaliculi,[5]; from 10 μM,suppressed bile canaliculi
same,Concentration decreasing the number of canaliculi,"[5]; tested 0.1 to 100 μM, 48 hours",≥ 1000 nM
same,"Doses with similar effects (anhedonia, anxiety-like behaviors) in rodents",[6],≥ 1 mg/kg
same,"Doses inducing scratching, hyperactivity followed by sedation and convulsions",[7],6 times the therapeutic dose
same,Food intake,[8],significantly decreased food intake
same,Genotoxicity (DNA damage),HeLa cells,induced DNA damage
same,Body weight,"[9]; 10 mg/kg ip once a day, 40 days",decreased body weight
same,ID100: inhibition of food-intake and body weight,[9]; male mice,10 mg/kg
same,Effect: inhibition of food-intake and body weight (repeated administration),"[9]; male mice, rimonabant 10 mg/kg",Yes
same,N fold ID100: inhibition of food-intake and body weight,[9]; [10],1
